Some results are limits rather than exact numbers.

Common to all, as to type: cell-based
Experiment [1] has as its target T1, glucocorticoid receptor (Homo sapiens, UniProt P04150).
T1 construct: A549 cells stably transfected with a reporter gene; endogenous in cells; host or cells: A549 cells (stably transfected with a reporter gene only)
T1 sequence (P04150 1-777): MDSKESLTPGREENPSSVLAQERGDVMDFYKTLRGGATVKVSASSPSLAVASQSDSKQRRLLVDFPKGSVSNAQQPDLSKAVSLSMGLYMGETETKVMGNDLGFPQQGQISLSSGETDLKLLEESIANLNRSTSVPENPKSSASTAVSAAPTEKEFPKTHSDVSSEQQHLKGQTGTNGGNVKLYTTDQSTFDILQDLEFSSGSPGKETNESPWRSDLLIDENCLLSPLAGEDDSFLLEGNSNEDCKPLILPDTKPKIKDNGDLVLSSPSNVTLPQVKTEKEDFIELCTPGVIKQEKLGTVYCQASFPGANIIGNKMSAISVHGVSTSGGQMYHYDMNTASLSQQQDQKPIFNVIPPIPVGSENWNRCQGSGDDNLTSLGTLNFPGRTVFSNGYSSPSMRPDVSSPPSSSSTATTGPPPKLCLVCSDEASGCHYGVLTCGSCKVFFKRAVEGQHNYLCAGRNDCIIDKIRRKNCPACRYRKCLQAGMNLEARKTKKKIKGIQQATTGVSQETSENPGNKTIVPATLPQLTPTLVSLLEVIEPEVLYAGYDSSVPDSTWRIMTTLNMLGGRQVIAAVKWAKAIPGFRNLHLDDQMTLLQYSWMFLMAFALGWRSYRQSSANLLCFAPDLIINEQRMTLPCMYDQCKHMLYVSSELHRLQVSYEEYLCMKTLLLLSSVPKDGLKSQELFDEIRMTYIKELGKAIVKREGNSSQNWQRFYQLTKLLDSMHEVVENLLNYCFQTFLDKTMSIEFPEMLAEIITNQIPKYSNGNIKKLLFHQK
In words: NF-κB transrepression reporter assay (ELAM promoter-sPAP) in A549 cells. The note with it: compound 1 hour at 37° C., then TNF 10 ng/ml for 16 hours, read-out: EC50 (transrepressive activity). The protocol:
The functional assay based on that described by K. P. Ray et al., Biochem J. (1997), 328, 707-715 provides a measure of transrepressive activity of a glucocorticoid agonist. A549 cells stably transfected with a reporter gene containing the NF-κB responsive elements from the ELAM gene promoter coupled to sPAP (secreted alkaline phosphatase) are treated with test compounds at appropriate doses for 1 hour at 37° C. The cells are then stimulated with tumour necrosis factor (TNF, 10 ng/ml) for 16 hours, at which time the amount of alkaline phosphatase produced is measured by a standard colourimetric assay. Dose response curves are constructed from which EC50 values may be estimated.
In general terms: In a reporter assay the amount or activity of a reporter protein is the signal.

For experiment [2], the target named is T1, glucocorticoid receptor. As to the kind of experiment: MMTV-LTR renilla luciferase transactivation reporter assay in A549 cells. The note with it: 6 hour at 37° C., read-out: maximal response relative to Dexamethasone (100%). The protocol: The functional assay based on that described by R. J. H. Austin et al., Eur Resp J. (2002), 20, 1386-1392 measures the ability of compounds to directly transactivate gene expression. A549 cells stably transfected with a reporter gene containing the glucocorticoid responsive region of the mouse mammary tumour virus long terminal repeat (MMTV-LTR) coupled to renilla luciferase were treated with test compounds at appropriate doses for 6 hour at 37° C. The amount of luciferase activity present within the cells is then determined by measuring the light emitted following incubation with a suitable substrate.

Experiment [3] deals with T2, Progesterone Receptor (Homo sapiens, UniProt P06401).
T2 construct: T47D cells were seeded into 96 well plates; endogenous in cells; host or cells: T47D human breast cancer cells
T2 sequence (P06401 1-933): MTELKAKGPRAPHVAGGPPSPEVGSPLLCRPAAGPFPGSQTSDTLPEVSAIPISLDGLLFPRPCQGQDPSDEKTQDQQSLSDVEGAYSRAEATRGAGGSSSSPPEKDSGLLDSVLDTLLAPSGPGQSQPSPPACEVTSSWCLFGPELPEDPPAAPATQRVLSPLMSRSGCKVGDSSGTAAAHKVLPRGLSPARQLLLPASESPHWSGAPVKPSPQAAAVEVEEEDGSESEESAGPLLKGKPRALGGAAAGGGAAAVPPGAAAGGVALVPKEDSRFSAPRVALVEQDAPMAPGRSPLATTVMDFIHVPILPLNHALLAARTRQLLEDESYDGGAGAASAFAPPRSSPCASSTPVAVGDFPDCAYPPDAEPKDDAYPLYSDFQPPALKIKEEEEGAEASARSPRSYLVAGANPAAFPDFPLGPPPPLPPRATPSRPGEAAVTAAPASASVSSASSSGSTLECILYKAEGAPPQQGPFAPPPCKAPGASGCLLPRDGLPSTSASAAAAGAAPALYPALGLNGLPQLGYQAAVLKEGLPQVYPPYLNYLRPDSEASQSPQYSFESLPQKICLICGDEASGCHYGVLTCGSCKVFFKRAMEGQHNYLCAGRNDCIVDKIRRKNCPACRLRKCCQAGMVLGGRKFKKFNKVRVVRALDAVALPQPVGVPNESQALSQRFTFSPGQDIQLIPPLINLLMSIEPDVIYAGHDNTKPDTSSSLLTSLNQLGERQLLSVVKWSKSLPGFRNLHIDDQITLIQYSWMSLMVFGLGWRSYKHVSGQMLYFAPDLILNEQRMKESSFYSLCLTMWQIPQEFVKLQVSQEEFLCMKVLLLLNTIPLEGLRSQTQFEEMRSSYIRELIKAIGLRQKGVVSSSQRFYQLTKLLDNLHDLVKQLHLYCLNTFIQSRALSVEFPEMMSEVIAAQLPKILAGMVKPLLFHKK
As to the kind of experiment: Assay for progesterone receptor activity (alkaline phosphatase in T47D cells). To be noted: T47D human breast cancer cells, 24 hours at 37° C.; read-out: EC50 (alkaline phosphatase upregulation).

As usually defined, the EC50 is the midpoint of the concentration-response curve. `C[C@@H]1C[C@H]2[C@@H]3C[C@H](F)C4=CC(=O)C=C[C@]4(C)[C@@]3(F)[C@@H](O)C[C@]2(C)[C@@]1(OC(=O)C1C(C)(C)C1(C)C)C(=O)OCC#N` [Example 1, 6α,9α-Difluoro-11β-hydroxy-16α-methyl-3-oxo-17α-(2,2,3,3-tetramethycyclopropylcarbonyl)oxy-androsta-1,4-diene-17β-carboxylic acid cyanomethyl ester]: the EC50 is below 0.1 nM in experiment [1] and above 100 nM in experiment [3]. Besides, the Emax in experiment [2] was below 5%.

Source of the values: patent publication US7291609B2, “Specific glucocorticosteroid compound having anti-inflammatory activity” (Glaxo Group Limited, priority 2003, dated 2007).
